Legend:
[1] = test system: S. pneumoniae D39V; experiment: fitness (endpoint OD595 vs no drug) (fraction); higher = more growth
Method in brief: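 With the first reading as background, OD595 was measured every 30 min for 14 h in 384-well plates kept at 37 °C and inoculated at OD595 0.01. TSB, LB Lennox or CY was the medium. Fitness is the optical density at the transition into stationary phase divided by the robust mean of no-drug control wells, with a cap of 1.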

[2] = test system: S. aureus Newman; experiment: Bliss interaction score (quartile over a dose matrix) (fitness difference); higher = more antagonism (negative = synergy)
Method in brief: (§1)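 The Bliss score was calculated by subtracting the expected fitness, the product of single-drug values, from the observed fitness. OD595 at entry into stationary phase, over the plate's robust no-drug mean and capped at 1, served as the fitness readout. Single-drug values were inferred from combination data, and scores are summarised by quartiles across technical, biological and donor/recipient replicates.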

[3] = test system: S. pneumoniae D39V; experiment: as above
Method in brief: as §1

[4] = test system: B. subtilis 168; experiment: as above
Method in brief: as §1

[5] = test system: S. aureus DSM 20231; experiment: as above
Method in brief: as §1
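Throughout, for Bliss interaction score (quartile over a dose matrix): first quartile when negative (synergy) and third quartile when positive (antagonism).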

O=C1CN(/N=C/c2ccc([N+](=O)[O-])o2)C(=O)N1 [Nitrofurantoin] + CCN(CC)CCOC(=O)c1ccc(N)cc1 [Procaine]
fitness, [1]
Conditions | partner 85.5 µg/mL | partner 171 µg/mL | partner 342 µg/mL
first compound 1.285 µg/mL | 0.994 | 0.987 | 0.994
first compound 2.57 µg/mL | 0.972 | 0.964 | 0.934

fitness, [1], one replicate
Conditions | first compound 2 µg/mL | first compound 4 µg/mL | first compound 5.14 µg/mL | first compound 8 µg/mL
partner 85.5 µg/mL | 0.964 | 0.951 | 0.921 | 0.858
partner 171 µg/mL | ≥ 1 | 0.979 | 0.943 | 0.908
partner 342 µg/mL | 0.914 | 0.879 | 0.918 | 0.837

Conditions | Bliss interaction score
[2] | 0.0593
[3] | 0.0619
[4] | 0.106
[5] | 0.0706

CC[C@H]1OC(=O)[C@H](C)[C@@H](O[C@H]2C[C@@](C)(OC)[C@@H](O)[C@H](C)O2)[C@H](C)[C@@H](O[C@@H]2O[C@H](C)C[C@H](N(C)C)[C@H]2O)[C@](C)(OC)C[C@@H](C)C(=O)[C@H](C)[C@@H](O)[C@]1(C)O [Clarithromycin] + CN(C)c1cc(NC(=O)CNC(C)(C)C)c(O)c2c1C[C@H]1C[C@H]3[C@H](N(C)C)C(O)=C(C(N)=O)C(=O)[C@@]3(O)C(O)=C1C2=O [Tigecycline]
fitness, [1], one replicate
Conditions | first compound 0.007812 µg/mL | first compound 0.01562 µg/mL | first compound 0.03125 µg/mL
partner 0.65 µg/mL | 0.848 | 0.757 | 0.646
partner 1.3 µg/mL | 0.813 | 0.749 | 0.633
partner 2.6 µg/mL | 0.815 | 0.747 | 0.619

fitness, [1]
Conditions | first compound 0.0625 µg/mL | first compound 0.07 µg/mL | first compound 0.125 µg/mL | first compound 0.14 µg/mL | first compound 0.25 µg/mL | first compound 0.28 µg/mL
partner 0.325 µg/mL | – | 0.111 | – | 0.071 | – | 0.0539
partner 0.65 µg/mL | 0.589 | 0.0865 | 0.253 | 0.0638 | 0.113 | 0.0627
partner 1.3 µg/mL | 0.506 | 0.0861 | 0.213 | 0.0727 | 0.103 | 0.068
partner 2.6 µg/mL | 0.494 | – | 0.198 | – | 0.119 | –

Conditions | Bliss interaction score
[2] | -0.0401
[3] | -0.0848
[4] | 0.0852
[5] | 0.0343

CC[C@H]1OC(=O)[C@H](C)[C@@H](O[C@H]2C[C@@](C)(OC)[C@@H](O)[C@H](C)O2)[C@H](C)[C@@H](O[C@@H]2O[C@H](C)C[C@H](N(C)C)[C@H]2O)[C@](C)(OC)C[C@@H](C)C(=O)[C@H](C)[C@@H](O)[C@]1(C)O [Clarithromycin] + CN[C@H](CC(C)C)C(=O)N[C@H]1C(=O)N[C@@H](CC(N)=O)C(=O)N[C@H]2C(=O)N[C@H]3C(=O)N[C@H](C(=O)N[C@H](C(=O)O)c4cc(O)cc(O)c4-c4cc3ccc4O)[C@H](O)c3ccc(c(Cl)c3)Oc3cc2cc(c3O[C@@H]2O[C@H](CO)[C@@H](O)[C@H](O)[C@H]2O[C@H]2C[C@](C)(N)[C@H](O)[C@H](C)O2)Oc2ccc(cc2Cl)[C@H]1O [Vancomycin]
fitness, [1], one replicate
Conditions | first compound 0.007812 µg/mL | first compound 0.01562 µg/mL | first compound 0.03125 µg/mL
partner 0.125 µg/mL | 0.835 | 0.803 | 0.699
partner 0.25 µg/mL | 0.333 | 0.0993 | 0.126
partner 0.5 µg/mL | 0.0664 | 0.0774 | 0.0781

fitness, [1]
Conditions | first compound 0.0625 µg/mL | first compound 0.07 µg/mL | first compound 0.125 µg/mL | first compound 0.14 µg/mL | first compound 0.25 µg/mL | first compound 0.28 µg/mL
partner 0.03125 µg/mL | 0.652 | – | 0.381 | – | 0.149 | –
partner 0.0625 µg/mL | 0.577 | – | 0.321 | – | 0.116 | –
partner 0.125 µg/mL | – | 0.101 | 0.281 | 0.0727 | 0.106 | 0.0814
partner 0.25 µg/mL | – | 0.0516 | – | 0.0525 | – | 0.0738
partner 0.5 µg/mL | – | 0.0749 | – | 0.0887 | – | 0.0893

Conditions | Bliss interaction score
[2] | 0.0579
[3] | -0.0529
[4] | 0.038
[5] | 0.054

C[C@@H](O)[C@H]1C(=O)N2C(C(=O)O)=C(SCCNC=N)C[C@H]12 [Imipenem] + CN[C@H](CC(C)C)C(=O)N[C@H]1C(=O)N[C@@H](CC(N)=O)C(=O)N[C@H]2C(=O)N[C@H]3C(=O)N[C@H](C(=O)N[C@H](C(=O)O)c4cc(O)cc(O)c4-c4cc3ccc4O)[C@H](O)c3ccc(c(Cl)c3)Oc3cc2cc(c3O[C@@H]2O[C@H](CO)[C@@H](O)[C@H](O)[C@H]2O[C@H]2C[C@](C)(N)[C@H](O)[C@H](C)O2)Oc2ccc(cc2Cl)[C@H]1O [Vancomycin]
fitness, [1]
Conditions | first compound 0.005 µg/mL | first compound 0.0065 µg/mL | first compound 0.01 µg/mL | first compound 0.013 µg/mL | first compound 0.02 µg/mL | first compound 0.026 µg/mL
partner 0.03125 µg/mL | 0.991 | – | 0.973 | – | 0.958 | –
partner 0.0625 µg/mL | 0.943 | – | 0.928 | – | 0.922 | –
partner 0.125 µg/mL | 0.783 | 0.769 | 0.767 | 0.798 | 0.76 | 0.817
partner 0.25 µg/mL | – | 0.0266 | – | 0.0839 | – | 0.0574
partner 0.5 µg/mL | – | 0.0186 | – | 0.0324 | – | 0.0486

Conditions | Bliss interaction score
[2] | -0.0669
[3] | -0.184
[4] | -0.0736
[5] | 0.0423

O=C(O[C@@H]1Cc2c(O)cc(O)cc2O[C@@H]1c1cc(O)c(O)c(O)c1)c1cc(O)c(O)c(O)c1 [EGCG] + CO[C@H]1/C=C/O[C@@]2(C)Oc3c(C)c(O)c4c(O)c(c(/C=N/N5CCN(C)CC5)c(O)c4c3C2=O)NC(=O)/C(C)=C\C=C\[C@H](C)[C@H](O)[C@@H](C)[C@@H](O)[C@@H](C)[C@H](OC(C)=O)[C@@H]1C [Rifampicin]
fitness, [1]
Conditions | first compound 12.5 µg/mL | first compound 25 µg/mL | first compound 50 µg/mL
partner 0.025 µg/mL | 0.923 | 0.925 | ≥ 1
partner 0.05 µg/mL | 0.931 | – | 0.942
partner 0.1 µg/mL | – | – | 0.496

[1], partner 0.2 µg/mL, one replicate
Conditions | fitness
first compound 12.5 µg/mL | 0
first compound 25 µg/mL | 0
first compound 50 µg/mL | 0

Conditions | Bliss interaction score
[2] | -0.0254
[3] | -0.0502
[4] | 0.0434
[5] | -0.0623
